Measured values published in publication PMC3826262 (MedChemComm, 2013).
Non-standard residues stand in square brackets, D forms with d. Residues, ends and D or L forms follow the SMILES beside them. *: point of attachment. Cbz = O=C(OCc1ccccc1)*; Dap = NC[C@H](N)C(=O)O

Legend:
NVPro = NVPro (Norovirus, UniProt Q83883); assay: Inhibition of recombinant NVPro; type: biochemical; settings: for fold less active than compound 1: ratio of Ki vs compound 1; for Ki: Table 1, recombinant NVPro
HOVPro = HOVPro (Norovirus Hu/Houston/TCH186/2002/US (Norovirus GII.4), UniProt A9YYE3); assay: Inhibition of Houston virus protease; type: biochemical; settings: HOVPro vs NVPro Ki

SMILES	fold less active than compound 1 (NVPro; NVPro)	inhibitory activity against NVPro (NVPro; NVPro)	Ki (NVPro)	also measured
CNC(=O)CC[C@@H](C=O)NC(=O)[C@H](Cc1ccccc1)NC(=O)[C@H](CC(C)C)NC(=O)OCc1ccccc1 [compound 14] (Cbz-Leu-Phe-Glu(NHMe)-aldehyde)	42 fold	–	–	–
CCOC(=O)/C=C/[C@H](CNC(C)=O)NC(=O)[C@H](Cc1ccccc1)NC(=O)[C@H](CC(C)C)NC(=O)OCc1ccccc1 [compound 13]	–	Neither 12 nor 13 exhibits inhibitory activity	inactive	–
CC(=O)NC[C@@H](C=O)NC(=O)[C@H](Cc1ccccc1)NC(=O)[C@H](CC(C)C)NC(=O)OCc1ccccc1 [compound 3] (Cbz-Leu-Phe-[Dap](Ac)-aldehyde)	~ 12 fold	–	–	–
CC(=O)N[C@@H](CC(C)C)C(=O)N[C@@H](Cc1ccccc1)C(=O)N[C@H](C=O)CCC(=O)N(C)C [compound 9] (Ac-Leu-Phe-Glu(NMe2)-aldehyde)	> 300 fold	–	–	–
CC(C)C[C@H](NC(=O)OCc1ccccc1)C(=O)N[C@@H](Cc1ccccc1)C(=O)N[C@H](C=O)CCC(=O)N(C)C [compound 1, Z-Leu-Phe-Gln(diMe)-CHO] (Cbz-Leu-Phe-Glu(NMe2)-aldehyde)	–	–	–	fold more active than compound 8 (NVPro; NVPro, ratio of Ki): 380 fold; fold more active than compounds 5 and 2 (NVPro; NVPro, ratio of Ki): 3-5 fold; fold activity reduction against HOVPro as compared with NVPro (HOVPro): > 60 fold
CC(=O)[C@H](CCC(=O)N(C)C)NC(=O)[C@H](Cc1ccccc1)NC(=O)[C@H](CC(C)C)NC(=O)OCc1ccccc1 [compound 10]	1,200 fold	–	–	–
CCOC(=O)/C=C/[C@H](CCC(=O)N(C)C)NC(=O)[C@H](Cc1ccccc1)NC(=O)[C@H](CC(C)C)NC(=O)OCc1ccccc1 [compound 11]	–	essentially inactive	inactive	–
CC(C)C[C@H](NC(=O)OCc1ccccc1)C(=O)N[C@@H](Cc1ccccc1)C(=O)N[C@H](C=O)CCC(=O)NC1CC1 [compound 15]	–	–	–	fold improved inhibition as compared to compound 14 (NVPro; NVPro, ratio of Ki): ~ 3 fold
CCOC(=O)/C=C/[C@H](CCC(N)=O)NC(=O)[C@H](Cc1ccccc1)NC(=O)[C@H](CC(C)C)NC(=O)OCc1ccccc1 [compound 12]	–	Neither 12 nor 13 exhibits inhibitory activity	inactive	–
